Source: a melting point compilation (Tetko et al.; mined from patent text by program, amines drawn as free bases though some values may be those of a salt)

Work on `CN(Cc1ccc(NC(=O)C2=Cc3cc(-c4ccc(C(C)(C)C)cc4)ccc3OCC2)cc1)C1CCOCC1` yielded a melting point of 193 to 194 °C. In the case of `CCOC(=O)C(=CNC1CC1)C(=O)c1cc(F)c(Cl)c(C#N)c1Cl`, the melting point is reported as 65 to 67 °C. With `CC(=O)OC1CCC2(C)C(=CCC3C2CCC2(C)C(n4ccnn4)=CCC32)C1` (stereo not drawn) the melting point was 158 to 160 °C. `CCOC(=O)NC(CCc1ccccc1)P(C)(=O)O` (stereo not drawn) gave a melting point of 119 to 125 °C. Compound `O=C(Nc1nc(C(F)(F)C(F)(F)F)c(CO)s1)c1cc(C(F)(F)F)cc(C(F)(F)F)c1` has a melting point of 164 to 165 °C. For `CC#COc1cc(-n2c(=O)n3n(c2=S)COCC3)c(Cl)cc1Cl`, the melting point was 188 to 190 °C. `CC(C)c1nsc2ccc(-n3c(=O)cc(C(F)(F)F)n(C)c3=O)cc12` showed a melting point of 139 to 140 °C. `O=C(Nc1nnc(COc2ccccc2Cl)s1)c1ccc2c(c1)CCN(C(=O)CO)C2` showed a melting point of 133 to 135 °C. `COC(=O)c1nn(C)nc1C=O` gave a melting point of 107 to 108 °C. With `CCOc1cc(C#N)ccc1C(=O)O` the melting point was 170 to 172 °C. In the case of `CC(C)N1CCN(S(=O)(=O)c2cccc(NC(=O)Nc3ccc(C(F)(F)F)cc3)c2)CC1`, the melting point is reported as 117 to 122 °C. With `COc1ccc(S(=O)(=O)CC(C)(C)CS(=O)(=O)c2ccc(OC)cc2)cc1` the melting point was 115 to 117 °C. Compound `OC(c1cccnc1)c1c[nH]c2ccc(F)cc12` (stereo not drawn) has a melting point of 131 to 133 °C. Work on `C=CCSc1ccc2[nH]c(NC(=O)OC)nc2c1` yielded a melting point of 197 to 198 °C. With `COC(=O)[C@H](CS)NC(=O)[C@H](CO)NC(=O)OC(C)(C)C` the melting point was 72 to 74 °C. For `COC(=O)Nc1ccc(N)c(NCCO)c1`, the melting point was 240 to 242 °C. Work on `CCn1c2ccc(C(C)=O)cc2c2cc(C(C)=O)ccc21` yielded a melting point of 184 to 190 °C. With `O=C(Cc1ccccc1)Nc1ccccc1` the melting point was 115 to 116 °C. Compound `CNC(=S)NCCCCc1nccs1` has a melting point of 130 to 132 °C. Compound `CCc1[nH]c(=S)[nH]c1C(=O)c1ccncc1` has a melting point of 275 °C. `COc1ccc(Cl)cc1N1CCN(CCCN2C(=O)c3ccccc3C2=O)CC1` showed a melting point of 131 to 133 °C. Compound `CCCc1nc2cc3c(cc2[nH]1)NC(=O)C3C` (stereo not drawn) has a melting point of 235 to 238 °C. Compound `COc1ccc2ccc(N3C(=O)C4=C(SCCO4)C3O)nc2n1` (stereo not drawn) has a melting point of 222 °C. In the case of `CON1C=C2N=NC3=C(N2C1)N(c1ccccn1)CC(C1CC1)=C3`, the melting point is reported as 162 to 164 °C. `O=C(O)c1cnc(O)cc1Cl` gave a melting point of 299 to 300 °C. `CCCCCCCCCCOC(=O)C1=C(C)OC(N)=C(C(=O)OCC)C1c1cccc([N+](=O)[O-])c1` (stereo not drawn) showed a melting point of 100 °C. With `Cc1ccc(-n2nc3c(cc2=O)CCc2sc(CO)cc2-3)cc1` the melting point was 166 to 169 °C. Work on `COc1ccc(CCNC(=O)C(F)(F)F)cc1C=O` yielded a melting point of 105 to 106 °C. Compound `Cc1ccc(-c2cccc3c2OC(COS(=O)(=O)c2ccc(C)cc2)C3)cc1` (stereo not drawn) has a melting point of 145 to 147 °C. For `Cc1cc(-c2ccc(Cl)c(C)c2)nc(-c2cccc(-c3ccc(S(N)(=O)=O)s3)c2)n1`, the melting point was 240 °C. In the case of `N[C@@H](Cc1ccccc1)C(=O)N1CCN(C(c2ccc(F)cc2)c2ccc(F)cc2)CC1`, the melting point is reported as 44 to 51 °C. With `Cc1nc2c(C(=O)O)c(C(=O)O)ccc2n1Cc1ccccc1` the melting point was 224 to 226 °C. Work on `Cc1nc2c(N)nc3ccccc3c2n1CCCC1(C)OCCO1` yielded a melting point of 193 to 195 °C. Work on `COc1ccc(C2CCN(c3c(C)c(C)c4c(c3C)C(c3ccsc3)C(C)(C)O4)CC2)cc1OC` (stereo not drawn) yielded a melting point of 111 to 113 °C. `CCSc1nc(Cl)c2sc3nc(-c4ccccc4)cc(C)c3c2n1` showed a melting point of 150 to 154 °C. Work on `CC(=O)C1CCC2C3CCC4CC(O)CCC4(C)C3C(OC(=O)CCl)CC12C` (stereo not drawn) yielded a melting point of 83 to 86 °C. Compound `N[C@@H](COc1cccc(Cl)n1)c1ccccc1` has a melting point of 56 to 57 °C. `CC(=O)CC(=O)N1c2ccc(C(O)(C(F)(F)F)C(F)(F)F)cc2CC1C` (stereo not drawn) gave a melting point of 118 to 119 °C. `Cn1nc(-c2cccc(Br)c2)cc1C(=O)O` showed a melting point of 166 to 169 °C. Work on `CC(CC(=O)O)C(=O)c1ccc(C(=O)C(C)CC(=O)O)cc1` (stereo not drawn) yielded a melting point of 195 to 202 °C. Work on `CCOCc1cc2ccccc2oc1=O` yielded a melting point of 95 to 96 °C. In the case of `COc1cc(OCC(=O)O)c(C)cc1SCCc1ccc(-c2ccc(C(F)(F)F)cc2)cc1`, the melting point is reported as 169 to 171 °C. `NC(=O)N(O)Cc1ccc(Sc2ccc(Cl)cc2)s1` gave a melting point of 158 to 160 °C. `O=C(Cc1ccc(C(=O)O)cc1)C(=O)c1ccccc1` gave a melting point of 192 to 195 °C. For `Cc1cc(C)n(C)c(=O)c1C#N`, the melting point was 202 to 205 °C. For `COc1c(N2C[C@@H](N)[C@@H](C3CC3)C2)c(F)cc2c(=O)c(C(=O)O)cn([C@@H]3C[C@@H]3F)c12`, the melting point was 211 to 214 °C. With `Cc1c(N2C[C@@H](N)[C@@H](C)C2)c(F)c(N)c2c(=O)c(C(=O)O)cn(C3CC3)c12` (relative stereo) the melting point was 214 to 215 °C. `COc1ccc2c(c1)NC(c1ccccc1)CO2` (stereo not drawn) gave a melting point of 79 to 81 °C. `COc1cc(OC)c(-c2cccn2C(=O)OC(C)(C)C)cc1/C=C/C(=O)c1ccc(C(=O)O)cc1` gave a melting point of 205 to 207 °C. For `COc1cccc(N2CCN(S(=O)(=O)c3cccc(/C=C/C(=O)NO)c3)CC2)c1`, the melting point was 196 °C. In the case of `c1cc2[nH]ncc2cc1OC1CCOCC1`, the melting point is reported as 151 to 153 °C. Work on `CCCCCCCCCCc1ccc(-c2ccc(OC)c(F)c2)cc1` yielded a melting point of 102 °C. `CSCC12CCC(O)C=C1CCC1C2CCC2(C)C(O)CCC12` (stereo not drawn) showed a melting point of 85 to 87 °C. `O=C(O)C1(C2CCCc3ccccc32)CC1` (stereo not drawn) gave a melting point of 140 to 142 °C. In the case of `[N-]=[N+]=NC1CC(n2cc(C(I)=CI)c(=O)[nH]c2=O)OC1COC(c1ccccc1)(c1ccccc1)c1ccccc1` (stereo not drawn), the melting point is reported as 139 °C. Compound `Oc1ccc2nc(-c3cccc4c(Br)c(O)ccc34)oc2c1` has a melting point of 221 to 223 °C. Compound `O=C(Nc1cccc(C(F)(F)F)c1)Nc1ccc2c(c1)OC(F)(F)O2` has a melting point of 187 to 191 °C. In the case of `COc1cc(COc2nn(C)cc2CC(=O)O)ccc1OCc1nc(-c2ccccc2)oc1C`, the melting point is reported as 153 to 154 °C. For `Cc1nccn1CC#CCN1CCCC1=O`, the melting point was 81 to 85 °C. In the case of `CCOC(=O)Cc1cnc(Nc2n[nH]c3ccc(-c4ncccc4Cl)cc23)s1`, the melting point is reported as 259 to 261 °C. For `COc1ccc(C2=NN(c3ccc4c(c3)COC4=O)C(=O)[C@H]3CC=CC[C@@H]23)cc1Cl` (relative stereo), the melting point was 212 to 213 °C. For `CC(=O)OC1CCC2(C)C(=CC(=O)C3C2CCC2(C)C(C(C)CCCC(C)(C)C)CCC32)C1` (stereo not drawn), the melting point was 183 to 186 °C. With `C=C(C)C(C)n1c(=O)c(C(C)C)cc2c3c(cc(C)c21)C(C)C(C)(CI)O3` (stereo not drawn) the melting point was 191 to 192 °C. `O=c1c(Br)c(OCc2ccc(Cl)cc2)cnn1-c1ccc(Cl)cc1` showed a melting point of 168 to 175 °C. Work on `CS(=O)(=O)c1ccc(-c2sc(CC#N)nc2-c2ccc(F)cc2)cc1` yielded a melting point of 151 to 152 °C. Work on `CCCC(c1ccccc1OCc1ccc(Cl)cc1Cl)n1ccnc1` (stereo not drawn) yielded a melting point of 89 to 90 °C. With `OCC(CO)n1nnnc1S` the melting point was 138 °C. For `CCCCSCC(=O)c1cc2sc(=O)[nH]c2cc1Cl`, the melting point was 102 to 115 °C. In the case of `CCCNc1cn(-c2cccnc2)nc1C`, the melting point is reported as 65 to 67 °C. `O=C(Nc1ccccc1)NN1CCCOC1=O` gave a melting point of 204 to 207 °C. `C=Cc1cccc(N2CC(CNC(=O)OC(C)(C)C)C2)n1` gave a melting point of 85 to 87 °C. Work on `CN(C)C(=N[N+](=O)[O-])NCc1ccc(Cl)nc1` yielded a melting point of 160 to 162 °C. With `CCCCCCCCCCCCc1cn(C(C(=O)Nc2c(OC)cc(OC)cc2OC)c2ccccc2)cn1` (stereo not drawn) the melting point was 95 to 102 °C. For `NS(=O)(=O)c1cccc(-c2cn(-c3nc(-c4cccc(Cl)c4)cc(C(F)(F)F)n3)cn2)c1`, the melting point was 204 °C. In the case of `COCCOc1cc2ncnc(NC3=CC(=O)C(N(C)C4CCCCC4)=CC3=O)c2cc1OC`, the melting point is reported as 178 to 180 °C. `O=C1c2cc3ccccc3cc2C(=O)c2c(Oc3ccccc3)cccc21` showed a melting point of 195 to 200 °C. `CC(C)(C)NS(=O)(=O)c1cccc2c1CSC2` gave a melting point of 128 to 132 °C. For `C=c1c(=O)[nH]c2n1Cc1cc(OCCCC(=O)N(C)C3CCCCC3)ccc1N=2`, the melting point was 176 to 178 °C. `N#Cc1c(N2CCC[C@@H]2CO)[nH]c2cccnc12` showed a melting point of 207 to 209 °C. With `C[C@@H]1Cc2cc([N+](=O)[O-])sc2[C@H](C)N1CCNC(=O)c1ccc([N+](=O)[O-])cc1` (relative stereo) the melting point was 155 to 156 °C. `Cn1c(CCN2CCC(c3ccccc3)CC2)nc2ccc3ccccc3c21` gave a melting point of 182 °C. Work on `CC(C(=O)N(C)C)n1nc(-c2ccccc2)c(Br)c1Br` (stereo not drawn) yielded a melting point of 132 to 134 °C. `CN1C(=O)CCN(c2ccc(Cl)cc2Cl)C1=O` showed a melting point of 154 to 157 °C. With `CN(C(=S)NC(=O)c1ccccc1)c1ccc(-c2ncn(-c3ccc(OC(F)(F)F)cc3)n2)cc1` the melting point was 166 to 169 °C. For `O=C(O)CCNC(=O)CCC(=O)Nc1cccc2ccccc12`, the melting point was 180 to 182 °C. `NC(CCCl)C(=O)c1ccccc1` (stereo not drawn) showed a melting point of 44 to 46 °C. For `CCNCC(=O)Nc1ccc2c(c1)C(=O)c1cc(NC(=O)CNCC)ccc1C2=O`, the melting point was 145 °C. `COc1c(C)oc2c(-n3c(=O)cc(C(F)(F)F)n(C)c3=O)c(F)cc(Cl)c12` showed a melting point of 57 to 60 °C. With `COc1ccc(C(CCC(=O)c2ccccc2)C(=O)c2ccc(OCc3ccccc3)cc2)cc1` (stereo not drawn) the melting point was 76 to 78 °C. Compound `CC(C)c1c(-c2ccncc2)[nH]c2ccc(C3=NNC(=O)CC3)cc12` has a melting point of over 300 °C. For `CC1(C2CCCC2)Cc2cc(NCC(=O)O)c(Cl)c(Cl)c2C1=O` (stereo not drawn), the melting point was 199 to 200 °C. With `ClCCCOc1ccc(-n2cncn2)cc1` the melting point was 81 to 82 °C. `Cn1c(C#N)ccc1-c1ccc2c(c1)C(C)(c1cccs1)OCC(=O)N2` (stereo not drawn) showed a melting point of 197 to 198 °C. In the case of `CNC(=S)Nc1cc(C(=O)OC)c(O)c2ncc(Cc3ccc(F)cc3)cc12`, the melting point is reported as 189 to 191 °C. `O=C(Nc1ccc2[nH]nc(C#Cc3ccccc3)c2c1)N[C@@H](c1ccc(Cl)c(Cl)c1)[C@@H]1CCCCN1` gave a melting point of 160 °C. Work on `Cc1sc2c(c1Br)C(=O)N(CCCCCl)CCC2` yielded a melting point of 78 to 80 °C. `CCC(C)NC(=O)NCC=CCOc1cc(CN2CCCCC2)ccn1` (stereo not drawn) gave a melting point of 72 to 74 °C. For `COC(=O)C1(C(=O)OC)CN(C(=O)OC(C)(C)C)c2cc([N+](=O)[O-])ccc21`, the melting point was 132 °C. `CC(=O)Nc1ccc2oc(-c3ccccc3)c(O)c(=O)c2c1` showed a melting point of 241 to 242 °C. `CC(=O)Nc1nc(Cl)c(NC=O)c(Cl)n1` gave a melting point of 189 to 193 °C. `CCCCCCC(CCC(=O)O)CC(=O)O` (stereo not drawn) showed a melting point of 70 to 71 °C. In the case of `CC1CC(=O)NN=C1c1ccc2c(c1)OCC(=O)N2C` (stereo not drawn), the melting point is reported as 188 to 190 °C. For `CS(=O)(=O)N(c1cc(F)c(F)cc1C#N)S(C)(=O)=O`, the melting point was 144 °C.
